US20030199494A1, “1,2,3,5-tetrahydrobenzo'c!azepin-4-one derivatives having muscarinic antagonist activity” (priority 2000, published 2003)

Legend:
Format in all cases: cell-based
M3 receptor [1] = biological target: T1, M3 receptor (Cavia porcellus, UniProt H0W1Z3); experiment: Functional tissue assay, M3 guinea-pig ileum (antagonist pA2); conditions: guinea-pig ileum, isometric contraction; antagonist pA2 per method; mean ± spread (n pts)
T1 construct: Sections (2 cm) are cut from the ileum of the killed guinea-pigs; from tissue; host or cells: guinea-pig ileum
T1 sequence (H0W1Z3 1-590): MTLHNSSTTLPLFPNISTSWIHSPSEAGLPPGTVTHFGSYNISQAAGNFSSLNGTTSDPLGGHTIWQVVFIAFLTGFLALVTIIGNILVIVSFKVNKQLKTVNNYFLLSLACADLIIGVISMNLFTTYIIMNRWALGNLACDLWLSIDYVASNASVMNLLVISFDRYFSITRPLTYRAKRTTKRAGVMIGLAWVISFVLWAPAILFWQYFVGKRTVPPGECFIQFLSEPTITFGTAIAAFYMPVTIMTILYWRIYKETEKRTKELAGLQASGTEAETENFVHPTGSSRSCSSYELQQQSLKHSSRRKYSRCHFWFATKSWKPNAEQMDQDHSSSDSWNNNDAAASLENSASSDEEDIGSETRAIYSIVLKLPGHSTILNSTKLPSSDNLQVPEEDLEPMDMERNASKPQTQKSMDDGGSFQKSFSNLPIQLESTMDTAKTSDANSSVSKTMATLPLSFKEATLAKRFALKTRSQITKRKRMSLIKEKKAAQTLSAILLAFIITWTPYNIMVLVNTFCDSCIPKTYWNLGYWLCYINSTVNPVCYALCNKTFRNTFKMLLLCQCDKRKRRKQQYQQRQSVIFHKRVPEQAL
Source text: (§1) Functional Assays of M1, M2 and M3 Receptor Activity
(§2) Initial evaluation of test compounds is by assay of functional tissue responses. This has the advantage that it readily discriminates between agonist partial agonist and antagonist activity
(§3) Sections (2 cm) are cut from the ileum of the killed guinea-pigs, 10 cm from the ileo-caecal junction. One end is attached to a tissue holder/aerator and the other end via a cotton thread to an isometric transducer. The tissue is immersed in gassed normal Ca^2+ Krebs solution at 32±0.5° C. A resting tension of 0.5 g is applied and isometric contractions measured by computer or polygraph.
(§4) Following at least 30 min equilibration to allow twitches or tension to stabilize, cumulative concentration-response curves for the muscarinic agonists are constructed. The concentration is increased in half logarithmic increments after the contraction in the presence of each concentration has plateaued Steady-state contractions at each concentration are measured and the inhibition expressed as a percentage of the baseline twitch height in atria and vas deferens or as the maxi contraction in the ileum. EC50 values for the muscarinic agonists are determined from individual curves as the molar concentration required for 50% inhibition of twitch height or the 50% of maximum contraction (ileum). Geometric mean EC50 values and their 95% confidence limits are calculated.
(§5) A concentration-response curve to the test agonist is established in the absence of antagonist and after achieving the maximum effect, the agonist washed from the bath to restore twitch contractions. Three further concentration-response curves are then obtained in the same manner at approximately 30 min intervals, with the antagonist (Standards—pirenzepine M1, darifenacin M3, methoctramine M2) being introduced to the bath 15 min before each of these subsequent curves.
(§6) Concentration-response curves in the absence and presence of antagonist are measured as described for the agonist studies. The shifts in the concentration-response curves in the presence of antagonist compared with the absence of antagonist are expressed as the dose-ratios (DR) of the EC50 values. pA2 values are then determined from Schild analysis of plots of the mean corrected […] against log molar concentration of antagonist. The slopes of the Schild plots are determined by linear regression and the pA2 values determined from the intercept on the concentration axis (when log(DR−1) is zero). pA2 values are also determined from individual concentrations of antagonist by applying the equations: pA2=log(DR−1) log[B], wherein B is the molar concentration of antagonist.

M3 receptor [2] = experiment: as above; conditions: ileum versus atria, log10 units
Source text: as §1, §2, §3, §4, §5, §6

M2 receptor = biological target: T2, M2 receptor (Cavia porcellus, UniProt H0VRN8); experiment: Functional tissue assay, M2 guinea-pig atria (antagonist pA2); conditions: guinea-pig left atria, paced; antagonist pA2 per method; mean ± spread (n pts)
T2 construct: from tissue; host or cells: guinea-pig left atrium
T2 sequence (H0VRN8 1-466): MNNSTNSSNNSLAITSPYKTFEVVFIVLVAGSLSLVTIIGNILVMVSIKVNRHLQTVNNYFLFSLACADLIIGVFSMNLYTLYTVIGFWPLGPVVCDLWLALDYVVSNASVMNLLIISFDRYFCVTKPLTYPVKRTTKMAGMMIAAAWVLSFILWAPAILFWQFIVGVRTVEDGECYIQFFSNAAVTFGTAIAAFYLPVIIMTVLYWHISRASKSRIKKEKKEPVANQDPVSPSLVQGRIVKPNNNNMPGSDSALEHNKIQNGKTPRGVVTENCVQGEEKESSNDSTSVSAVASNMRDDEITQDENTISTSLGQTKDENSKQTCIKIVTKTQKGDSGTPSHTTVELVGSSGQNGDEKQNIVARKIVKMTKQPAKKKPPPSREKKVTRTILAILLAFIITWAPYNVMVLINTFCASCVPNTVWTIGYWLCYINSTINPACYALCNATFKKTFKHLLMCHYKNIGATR
Source text: as §1, §2
Guinea-pigs are killed by a blow to the back of the head and left atrium removed. The atrium is secured to a pari of stainless steel electrodes by means of a cotton thread and immersed in the organ bath containing gassed Krebs solution with normal Ca^2 + at 32±0.50C. Atria are placed at 2 Hz with square-wave pulses of 0.5 ms pulse width. Isometric contractions are recorded by computer or polygraph.
as §4, with “EC50 values for the muscarinic agonists are determined from individual curves as the molar concentration required for 50% inhibition of twitch height or the 50% of maximum contraction (ileum). Geometric mean EC50 values and their 95% confidence limits are calculated.” left out
Concentration-response curves in the absence and presence of antagonist are measured as described for the agonist studies. […]

M3 (ileum) (M3 receptor [1])	SMILES	Log10 selectivity (M3 receptor [2])	M2 antagonist pA2 (atria) (M2 receptor)
6.5 ± 0.4 (3 pts)	O=C1CN(CCNCc2ccccc2)Cc2ccccc2[C@]1(O)C1CCC1 (stereo in doubt) [Compound 19, 2-[2-(benzylamino)ethyl]-5-cyclobutyl-5-hydroxy-1,3,4,5-tetrahydrobenzo[c]azepin-4-one]	1.6 ± 0.7	4.9 ± 0.6 (4 pts)
6.7 ± 0.4 (4 pts)	O=C1CN(CCCNCc2ccccc2)Cc2ccccc2[C@]1(O)C1CCC1 (stereo in doubt) [Compound 22, 2-[3-(Benzylamino)propyl]-5-cyclobutyl-5-hydroxy-1,2,3,5-tetrahydrobenzo[c]azepin-4-one]	1.5 ± 0.5	5.2 ± 0.3 (4 pts)
